Assays:
Assay in all cases: CTG-3D luminescence at 96 h relative to day-0 seeding control (ratio to day 0); higher = more growth / less cytotoxicity; PDxO 3D drug screen, 96 h, CTG-3D normalised to day-0 seeding control.
HCI-027 = test system: HCI-027 (organoid from a triple-negative breast cancer xenograft)
HCI-025 = test system: HCI-025 (organoid from a breast cancer xenograft)
HCI-003.E2 = test system: HCI-003.E2 (organoid from an ER-positive breast cancer xenograft)
HCI-024 = test system: HCI-024 (organoid from a breast cancer xenograft)
HCI-016 = test system: HCI-016 (organoid from a triple-negative breast cancer xenograft)

CS(=O)(=O)c1ccc(C(=O)Nc2ccc(Cl)c(-c3ccccn3)c2)c(Cl)c1 [vismodegib]
CTG-3D luminescence at 96 h
Details	12.5 pM	0.00025 µM	0.005 µM	0.1 µM	1 µM	10 µM	100 µM	625 fM
HCI-016, days in culture: 153	3.24	1.78	2.91	1.54	2.95	1.79	0.626	2.46
HCI-016, days in culture: 172	2.24	1.87	1.95	1.87	2.13	1.47	0.75	2.02
HCI-016, days in culture: 190	2.13	1.28	1.74	1.58	1.72	1.66	0.376	1.7
HCI-016, days in culture: 199	2.04	1.97	2.17	2.07	2.19	2.01	0.655	2.15
HCI-024, days in culture: 105	1.78	1.57	1.53	1.77	1.64	1.97	1.09	1.64
HCI-024, days in culture: 122	1.39	1.99	2.14	2.07	2.27	2.75	1.23	2.04
HCI-024, days in culture: 163	1.93	2.3	1.87	2.29	2.2	2.36	1.4	2.01
HCI-025, days in culture: 172	3.09	1.78	3.88	2.18	2.97	1.37	0.368	2.37
HCI-025, days in culture: 209	1.85	2.63	2.69	1.56	2.47	1.4	0.0933	1.57
HCI-025, days in culture: 218	1.48	1.67	2.01	1.69	1.56	1.88	-0.104	1.87
HCI-027, days in culture: 176	2.64	1.85	2.83	2.12	2.22	1.1	-0.204	2.79
HCI-027, days in culture: 194	2.59	1.87	2.35	2.35	2.6	2.12	-0.0508	2.34
HCI-027, days in culture: 201	3.03	3.03	3.44	2.6	3.36	1.74	0.019	3.54

HCI-003.E2
Details	CTG-3D luminescence at 96 h
12.5 pM	1.92
0.00025 µM	2.03
0.005 µM	1.93
0.1 µM	2.17
1 µM	2.08
10 µM	1.96
100 µM	0.299
625 fM	1.94

Source: the supplement of paper PMC8882468
